# Ends that are not written are not given here.
# What was measured:
# [1] = test system: metastatic melanoma; settings: cited from earlier work
# [2] = test system: stage IV melanoma characterized by distant unresectable metastases; test: Phase II clinical trial with DTIC plus Tα1 with or without IFNα vs DTIC plus IFNα; tumor response by RECIST; type: in vivo, human; settings: preliminary analysis on 142 patients; at the higher doses of Tα1
# Text: Phase II Clinical Trial with Dacarbazine (DTIC) Plus Thymosin alpha 1 (Tα1) with or without Interferon alpha (IFNα) vs DTIC Plus IFNα in Stage IV Melanoma Characterized by Distant Unresectable Metastases
# Trial Design phase II, randomized, stratified, open-study testing different doses of Tα1 in association with DTIC and IFNα, as first line therapy for stage IV melanoma patients characterized by distant unresectable metastases (AJCC; Journal of Clinical Oncology 2001, 19: 3635-3648) without brain metastases. The primary study end-point was tumor response, and the following combination composition were used:
# The protocol was than amended: 30 patients were added to each of the 2 triple therapies in order to balance the sample size of all the four groups and the following new group (using a higher dose of Tα1) was added:
# The five groups were analyzed independently one another within the so-called “pick the winner” strategy.
# Methods: Recycling every 28 days, patients were administered DTIC (800 mg/m^2) i.v. at day 1, Tα1 (1.6 or 3.2 mg) s.c. at days 8-11 and 15-18, and IFNα (3 MIU) s.c. at day 11 and 18. Clinical response was evaluated every two cycles according to RECIST criteria (New Guidelines to Evaluate the Response to Treatment in Solid Tumors; Journal of the National Cancer Institute, 2000. 92: 205-216) utilizing a central reader. […]
# [3] = test system: human non-small cell lung cancer (NSCLC) cells; settings: subcutaneous 1 or 10 mg per day; nude mice previously inoculated with human NSCLC cells; cited from earlier work
# [4] = test system: lymphosarcoma cells; settings: BALB/c mice; cited from earlier work
compound,measurement,setting,value
"CN(C)/N=N/c1[nH]cnc1C(N)=O [DTIC, Dacarbazine]",duration of responses (short-lived),[1]; DTIC responses,three to six
same,effect of responses on patients' overall survival,[1]; DTIC,no evidence that these responses have any effect on the patients' overall survival
same,actual overall responses to DTIC,[1]; Journal of Clinical Oncology and ASCO proceedings 2004,5.5-6.8%
"thymosin alpha 1 (SDAAVDTSSEITTKDLKEKKEVVEEAEN; ends and bridges not checked; UniProt P06454 2-29, looked up) [a compound well known in the medical field]",dose-response effect on tumor response,[2],clear dose-response effect
same,tumor volume,[3],significantly decreased
same,local sarcoma growth as well as liver and lung metastases of lymphosarcoma cells,[4],significantly reduced
